In patent publication US6989364B1, “Methods for treating cardiac hypertrophy by administering IFN-γ” (Genentech, Inc., priority 1998, dated 2006):

Columns and labels:
[1] = tested on: adult rat cardiac myocytes; assay: Inhibition of phenylephrine-induced spreading response of adult myocytes; format: cell-based; details: IFN-γ 500 U/ml, PE 10^−5 M, 72 hr
Description: FIGS. 3A–3F Inhibition of phenylephedrine (PE)-induced spreading response by IFN-γ. Myocytes were pre-incubated with saline vehicle or IFN-γ (500 U/ml) on day of isolation. A second addition of vehicle or IFN-γ was performed 24h after isolation, along with the addition of either vehicle or PE (10^−5 M). After an additional 72 hr incubation, cells were fixed in glutaraldehyde, stained with eosin Y and viewed by fluorescence microscopy. A, B, C Cardiac myocytes after 4 days in culture: control, PE, and PE+IFN-γ, respectively. D, E, F Histographs showing maximum breadth of rod shaped cardiac myocytes versus percent frequency of breadth occurrence. The maximum breadth of rod-shaped cells was determined by fluorescence microscopy and imaging software. At least 200 rod shaped cells from a single experiment were examined per group. […] P<0.001 for all group comparisons. […]
Isolated adult rat myocytes were plated on laminin-coated plates at a density of 3×10^3 cells/ml. After 72 hours of appropriate stimulation, the cells were fixed with gluteraldehyde and stained with Eosin Y. Images of rod shaped cells were captured under fluorescent microscopy and maximum breadth was determined using imaging software (Simple 32, Compix Imaging, Mars, Pa.).

[2] = tested on: male Sprague/Dawley (SD) rats; assay: Hemodynamic assessment (MAP) in rats treated with fluprostenol and/or IFN-γ; format: in vivo, rat; details: conscious rats, 14 days of treatment (FIG. 5)
Description: Hemodynamic assessment Thirteen days after treatment, rats were anesthetized with intraperitoreal injection of ketamine 80 mg/kg (Aveco Co., Inc., Fort Dodge, Iowa) and xylazine 10 mg/kg (Rugby Laboratories, Inc., Rockville Center, N.Y.). A catheter (PE-10 fused with PE 50) filled with heparin-saline solution (50 U/ml) was implanted into the abdominal aorta, via the right femoral artery, for measurement of mean arterial pressure (MAP) and heart rate (HR). The catheter was exteriorized and fixed at the back of the neck.
One day after catheterization, the arterial catheter was connected to a Model CP 10 pressure transducer (Century Technology Company, Inglewood, Calif., USA) that was coupled to a Grass Model 7 polygraph (Grass Instruments, Quincy, Mass., USA). MAP and HR were measured simultaneously in conscious, unrestrained rats.

IFN-γ: recombinant mouse IFN-γ (Genentech, Inc., South San Francisco, Calif., or Genzyme, Cambridge, Mass.)
Inhibition of phenylephrine-induced myocyte spreading [1]: can also inhibit spreading induced by phenylephrine | Effect of IFN-γ on MAP of animals treated with fluprostenol [2]: did not affect the MAP | Mean arterial pressure (MAP) compared to vehicle [2]: had no effect on MAP
